Data reported in paper PMC5522529, “Mechanisms of Paradoxical Activation of AMPK by the Kinase Inhibitors SU6656 and Sorafenib” (Cell Chemical Biology, 2017).

Experiments:
[1] = system: AMPK; assay: AMPK activity in HeLa cells stably expressing LKB1; assay type: cell-based, human; conditions: HeLa cells expressing LKB1, 100 μM, 1 hr
Method: Figure 1 SU6656 Activates AMPK but Not AMPK-Related Kinases (A) HEK293 cells were incubated with the indicated concentrations of SU6656 or berberine (300 μM) for 1 hr; total AMPK activity was assayed in immunoprecipitates (top; mean ± SEM, n = 4), and phosphorylation of AMPK (Thr172), ACC (Ser80), and Raptor (Ser792) analyzed by western blotting (bottom; n = 2). (B) HEK293 cells were incubated with 100 μM SU6656 (1 hr), AMPK complexes containing α1, α2, β1, and β2 immunoprecipitated using isoform-specific antibodies, and AMPK activity measured (mean ± SEM, n = 4). (C) HeLa cells stably expressing LKB1 ([Fogarty et al., 2010]) were incubated with 100 μM SU6656 for 1 hr, AMPK or individual ARKs immunoprecipitated, and kinase assays carried out (antibodies that distinguish MARK2/MARK3 were not available, so they were assayed together). Results are means ± SEM (n = 2). In all panels, asterisks indicate significant differences from controls without SU6656. *p < 0.05, **p < 0.01, ****p < 0.0001. […]

[2] = biological target: human AMPK-α2 (WT) (Homo sapiens, UniProt P54646); assay: AMPK activity of FLAG-tagged WT AMPK-α2 expressed in HEK293 cells; assay type: cell-based; conditions: SU6656 100 μM, phenformin 10 mM, A23187 10 μM, 1 hr
Method: Top: AMPK activity (mean ± SEM, n = 4); bottom: western blots showing phosphorylation of Thr172 on AMPK, and of ERK1/2, in cells treated with DMSO (control), SU6656 (100 μM), or PP2 (100 nM) (n = 2). (B) As (A), but in SYF cells. (C) HeLa cells were transfected with DNAs encoding GFP alone, or GFP fused to WT, Y261F/Y365F (FF), or Y36F/Y261F/Y365F (FFF) mutants of LKB1; cells were treated with increasing concentrations of SU6656 for 1 hr and AMPK activity determined (mean ± SEM, n = 4). See also Figure S1. (D) HEK293 cells were transfected with DNAs encoding FLAG-tagged AMPK-α2 with or without a Y436F mutation. Cells were incubated with DMSO (control), 100 μM SU6656, 10 mM phenformin, or 10 μM A23187 for 1 hr; AMPK complexes were immunoprecipitated using anti-FLAG antibody and assayed. The top panels show kinase activities (mean ± SD, n = 3); the bottom panels show blots from the same experiment (n = 2). In all panels, asterisks indicate significant differences from DMSO controls; in (D), there were no significant differences between the WT and Y463F mutant. **p < 0.01, ****p < 0.0001.

[3] = system: LKB1 versus AMPK; design: method as in MRC Kinase Inhibitor Database; conditions: ref MRC Kinase Inhibitor Database; cited from earlier work
[4] = system: mice; design: method as in Yamada et al., 2010; conditions: ref Yamada et al., 2010; cited from earlier work
[5] = system: AMPK; design: method as in Bain et al., 2007; conditions: ref Bain et al., 2007; cited from earlier work
[6] = system: Raptor; assay: Raptor phosphorylation in HEK293 cells (western blot); assay type: cell-based, human; conditions: 1 hr
Method: Figure 1 SU6656 Activates AMPK but Not AMPK-Related Kinases (A) HEK293 cells were incubated with the indicated concentrations of SU6656 or berberine (300 μM) for 1 hr; total AMPK activity was assayed in immunoprecipitates (top; mean ± SEM, n = 4), and phosphorylation of AMPK (Thr172), ACC (Ser80), and Raptor (Ser792) analyzed by western blotting (bottom; n = 2). (B) HEK293 cells were incubated with 100 μM SU6656 (1 hr), AMPK complexes containing α1, α2, β1, and β2 immunoprecipitated using isoform-specific antibodies, and AMPK activity measured (mean ± SEM, n = 4). (C) HeLa cells stably expressing LKB1 ([Fogarty et al., 2010]) were incubated with 100 μM SU6656 for 1 hr, AMPK or individual ARKs immunoprecipitated, and kinase assays carried out (antibodies that distinguish MARK2/MARK3 were not available, so they were assayed together). Results are means ± SEM (n = 2). In all panels, asterisks indicate significant differences from controls without SU6656. *p < 0.05, **p < 0.01, ****p < 0.0001.
SDS-PAGE was performed using precast Bis-Tris 4–12% gradient polyacrylamide gels in the MOPS buffer system (ThermoFisher Scientific). Proteins were transferred to nitrocellulose membranes using the iBlot 2 system (ThermoFisher Scientific). […] Protein concentrations were determined by Coomassie Blue binding with bovine serum albumin as standard ([Bradford, 1976]). […]

human AMPK-α2 (WT), sequence (P54646 whole entry, the tested form may be a part): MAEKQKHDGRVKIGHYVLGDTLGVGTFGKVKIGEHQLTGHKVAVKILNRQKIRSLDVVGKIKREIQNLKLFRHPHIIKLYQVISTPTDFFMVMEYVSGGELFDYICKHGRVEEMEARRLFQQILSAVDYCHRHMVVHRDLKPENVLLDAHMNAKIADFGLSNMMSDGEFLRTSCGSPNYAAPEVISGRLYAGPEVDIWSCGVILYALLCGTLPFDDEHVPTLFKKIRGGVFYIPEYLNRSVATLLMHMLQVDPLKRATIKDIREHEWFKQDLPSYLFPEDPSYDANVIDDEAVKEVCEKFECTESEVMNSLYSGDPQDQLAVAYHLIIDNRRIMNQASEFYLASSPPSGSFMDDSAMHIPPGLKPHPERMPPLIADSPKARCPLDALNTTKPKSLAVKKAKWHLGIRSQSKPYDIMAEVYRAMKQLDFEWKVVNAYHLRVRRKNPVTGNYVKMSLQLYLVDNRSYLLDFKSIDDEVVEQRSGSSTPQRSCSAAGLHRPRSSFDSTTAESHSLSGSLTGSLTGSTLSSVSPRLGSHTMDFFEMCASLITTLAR
human AMPK-α2 (WT), sequence (P54619 whole entry partner, the tested form may be a part): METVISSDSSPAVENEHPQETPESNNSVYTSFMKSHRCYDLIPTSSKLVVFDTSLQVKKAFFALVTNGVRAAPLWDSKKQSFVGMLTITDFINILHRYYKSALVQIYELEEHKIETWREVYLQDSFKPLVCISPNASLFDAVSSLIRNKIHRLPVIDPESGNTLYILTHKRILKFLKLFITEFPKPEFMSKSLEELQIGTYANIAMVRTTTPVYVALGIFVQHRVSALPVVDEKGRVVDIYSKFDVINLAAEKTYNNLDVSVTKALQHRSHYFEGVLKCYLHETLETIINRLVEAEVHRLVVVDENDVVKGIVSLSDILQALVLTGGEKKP

Compound	AMPK activity [1]	AMPK activity in anti-FLAG immunoprecipitates [2]	potency of LKB1 inhibition relative to AMPK inhibition [3]	fatty acid oxidation [4]	inhibition of AMPK relative to Src [5]	Raptor phosphorylation [6]
CN(C)S(=O)(=O)c1ccc2c(c1)/C(=C/c1cc3c([nH]1)CCCC3)C(=O)N2 [SU6656]	robustly activated AMPK	all activated AMPK	inhibition of LKB1 was less potent than that of AMPK	increased fatty acid oxidation	inhibits AMPK as effectively as Src	–
COc1ccc2cc3[n+](cc2c1OC)CCc1cc2c(cc1-3)OCO2 [berberine]	–	–	–	–	–	did promote Raptor phosphorylation
